Measurements from publication PMC9181188 (International Journal of Molecular Sciences, 2022).
Values after ≈ are worked out from the molar mass of the structure shown. Read-outs that look alike come from different tables or passages of the source.

What was measured:
[1] = test system: S. epidermidis KR 4047 825/19; assay: MIC, clinical S. epidermidis strain; type: cell-based; details: Staphylococcus epidermidis, KR4047825/19, quinolone-resistant, 18 h of treatment
[2] = test system: E. coli ATCC 25922; assay: MIC, twofold microdilution, standard strain; type: cell-based, Escherichia coli; details: Escherichia coli, read-out: MIC E. coli ATCC 25922
[3] = test system: SW480 cells; assay: MTT assay, SW480; type: cell-based, human; details: for IC50: human primary colon cancer, 72 h, MTT, mean ± SD; for SI SW480: SI = IC50 for normal cell line (HaCaT)/IC50 cancer cell line
[4] = test system: SW620 cells; assay: MTT assay, SW620; type: cell-based, human; details: for IC50: Homo sapiens, SW-620, 72 h, human metastatic colon cancer, 72 h, MTT, mean ± SD; for SI SW620: SI = IC50 for normal cell line (HaCaT)/IC50 cancer cell line
[5] = test system: PC3 cells; assay: MTT assay, PC3; type: cell-based, human; details: for IC50: human metastatic prostate cancer, 72 h, MTT, mean ± SD; for SI PC3: SI = IC50 for normal cell line (HaCaT)/IC50 cancer cell line
[6] = target: T1, S. aureus topoisomerase IV (Staphylococcus aureus, UniProt P0C1S7+P0C1U9); assay: S. aureus topoisomerase IV decatenation assay; type: biochemical
T1 construct: purchased Inspiralis
Protocol: The assay was performed using S. aureus topoisomerase IV […] kit (Inspiralis). Kinetoplast DNA (kDNA) was the substrate for topoisomerase IV.

[7] = test system: standard staphylococci (S. aureus, S. epidermidis); assay: MIC, standard Gram-positive strains as a group; type: cell-based; details: Staphylococcus aureus; range over standard Gram-positive strains; read-out: MIC against standard staphylococci
[8] = test system: S. aureus ATCC 6538; assay: MIC, twofold microdilution, standard strain; type: cell-based; details: Staphylococcus aureus, ATCC6538; 18 h of treatment; read-out: MIC S. aureus ATCC 6538
[9] = test system: S. epidermidis T 5399 848/19; assay: MIC, clinical S. epidermidis strain; type: cell-based; details: Staphylococcus epidermidis, T5399848/19, quinolone-susceptible, 18 h of treatment
[10] = test system: P. aeruginosa ATCC 27853; assay: MIC, twofold microdilution, standard strain; type: cell-based; details: Pseudomonas aeruginosa, ATCC27853; 18 h of treatment; read-out: MIC P. aeruginosa ATCC 27853
[11] = test system: S. aureus ATCC 29213; assay: MIC, twofold microdilution, standard strain; type: cell-based; details: Staphylococcus aureus, ATCC29213; 18 h of treatment; read-out: MIC S. aureus ATCC 29213
[12] = test system: M. tuberculosis Spec. 192 (Sensitive to Tuberculostatics); assay: MABA (microplate Alamar blue assay) MIC; type: cell-based; details: Mycobacterium tuberculosis, 336 h, read-out: MIC M. tuberculosis Spec. 192 (Sensitive to Tuberculostatics)
[13] = test system: S. epidermidis ATCC 35984; assay: MIC, twofold microdilution, standard strain; type: cell-based; details: Staphylococcus epidermidis, ATCC35984; 18 h of treatment; read-out: MIC S. epidermidis ATCC 35984
[14] = test system: HaCaT cells; assay: MTT assay, HaCaT normal cells; type: cell-based; details: human immortal keratinocyte cell line, 72 h, mean ± SD
[15] = target: S. aureus DNA gyrase (Staphylococcus aureus, UniProt P0A0K8+P20831); assay: biochemical
Protocol: The assay was performed using S. aureus DNA Gyrase Supercoiling kit (Inspiralis). […] Samples were vortexed, centrifuged, and 20 µL of the aqueous phase of each sample was loaded onto a 1% agarose gel and left for 30 min prior to electrophoresis to allow diffusion of salt. Electrophoresis was conducted in TAE buffer for 3 h at 50 V. Gels were stained with ethidium bromide and visualized under UV light in a transilluminator (ChemiDoc MP, Bio Rad, Warsaw, Poland).

[16] = test system: S. epidermidis KR 4313 834/19; assay: MIC, clinical S. epidermidis strain; type: cell-based; details: Staphylococcus epidermidis, KR4313834/19, quinolone-susceptible, 18 h of treatment
[17] = test system: S. epidermidis KR 4243 829/19; assay: MIC, clinical S. epidermidis strain; type: cell-based; details: Staphylococcus epidermidis, KR4243829/19, quinolone-susceptible, 18 h of treatment
[18] = test system: S. epidermidis T 5253 845/19; assay: MIC, clinical S. epidermidis strain; type: cell-based; details: Staphylococcus epidermidis, T5253845/19, quinolone-resistant, 18 h of treatment
[19] = test system: S. epidermidis KR 4358/2 840/19; assay: MIC, clinical S. epidermidis strain; type: cell-based; details: Staphylococcus epidermidis, KR4358/2840/19; clinical S. epidermidis, quinolone-susceptible, 18 h of treatment; read-out: MIC KR 4358/2 840/19
[20] = test system: S. aureus NCTC 4163; assay: MIC, twofold microdilution, standard strain; type: cell-based; details: Staphylococcus aureus, NCTC4163; 18 h of treatment; read-out: MIC S. aureus NCTC 4163
[21] = test system: M. tuberculosis strains; assay: MABA MIC, mycobacterial strains as a group; type: cell-based; details: Mycobacterium tuberculosis, read-out: MIC antimycobacterial (strain not specified)
[22] = test system: S. aureus ATCC 25923; assay: MIC, twofold microdilution, standard strain; type: cell-based; details: Staphylococcus aureus, ATCC25923; 18 h of treatment; read-out: MIC S. aureus ATCC 25923
[23] = test system: S. epidermidis T 5501 851/19; assay: MIC, clinical S. epidermidis strain; type: cell-based; details: Staphylococcus epidermidis, T5501851/19, read-out: MIC T 5501 851/19, quinolone-susceptible, 18 h of treatment
[24] = test system: S. epidermidis ATCC 12228; assay: MIC, twofold microdilution, standard strain; type: cell-based; details: Staphylococcus epidermidis, ATCC12228; 18 h of treatment; read-out: MIC S. epidermidis ATCC 12228
[25] = test system: M. tuberculosis H37Rv; assay: MABA (microplate Alamar blue assay) MIC; type: cell-based; details: Mycobacterium tuberculosis, 336 h, read-out: MIC M. tuberculosis H37Rv
[26] = test system: quinolone-susceptible clinical coagulase-negative staphylococci; assay: MIC, quinolone-susceptible clinical isolates as a group; type: cell-based; details: Staphylococcus epidermidis; five quinolone-susceptible isolates; read-out: MIC against quinolone-susceptible clinical isolates

T1 sequence (P0C1U9 whole entry): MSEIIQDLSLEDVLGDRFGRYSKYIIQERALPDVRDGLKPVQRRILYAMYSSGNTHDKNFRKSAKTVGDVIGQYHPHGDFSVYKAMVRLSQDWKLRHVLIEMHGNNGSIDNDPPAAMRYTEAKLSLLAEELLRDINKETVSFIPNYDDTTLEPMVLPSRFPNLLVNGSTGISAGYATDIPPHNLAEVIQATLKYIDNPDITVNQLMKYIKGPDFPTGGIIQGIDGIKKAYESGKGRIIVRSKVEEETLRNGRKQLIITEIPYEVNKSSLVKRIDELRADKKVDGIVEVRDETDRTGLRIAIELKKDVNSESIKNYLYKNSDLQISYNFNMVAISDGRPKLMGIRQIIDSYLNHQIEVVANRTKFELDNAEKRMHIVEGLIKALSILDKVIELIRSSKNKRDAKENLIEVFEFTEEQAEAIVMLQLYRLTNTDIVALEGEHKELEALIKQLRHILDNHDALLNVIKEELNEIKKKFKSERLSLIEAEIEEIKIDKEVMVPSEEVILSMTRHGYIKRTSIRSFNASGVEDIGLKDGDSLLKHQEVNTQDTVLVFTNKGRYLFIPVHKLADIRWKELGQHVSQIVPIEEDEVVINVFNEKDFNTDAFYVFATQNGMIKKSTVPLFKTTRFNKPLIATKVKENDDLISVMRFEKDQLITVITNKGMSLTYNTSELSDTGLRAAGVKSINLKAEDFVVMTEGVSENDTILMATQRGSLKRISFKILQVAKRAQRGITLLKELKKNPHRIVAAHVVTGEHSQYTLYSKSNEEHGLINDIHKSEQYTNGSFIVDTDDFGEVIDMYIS
T1 sequence (P0C1S7 whole entry): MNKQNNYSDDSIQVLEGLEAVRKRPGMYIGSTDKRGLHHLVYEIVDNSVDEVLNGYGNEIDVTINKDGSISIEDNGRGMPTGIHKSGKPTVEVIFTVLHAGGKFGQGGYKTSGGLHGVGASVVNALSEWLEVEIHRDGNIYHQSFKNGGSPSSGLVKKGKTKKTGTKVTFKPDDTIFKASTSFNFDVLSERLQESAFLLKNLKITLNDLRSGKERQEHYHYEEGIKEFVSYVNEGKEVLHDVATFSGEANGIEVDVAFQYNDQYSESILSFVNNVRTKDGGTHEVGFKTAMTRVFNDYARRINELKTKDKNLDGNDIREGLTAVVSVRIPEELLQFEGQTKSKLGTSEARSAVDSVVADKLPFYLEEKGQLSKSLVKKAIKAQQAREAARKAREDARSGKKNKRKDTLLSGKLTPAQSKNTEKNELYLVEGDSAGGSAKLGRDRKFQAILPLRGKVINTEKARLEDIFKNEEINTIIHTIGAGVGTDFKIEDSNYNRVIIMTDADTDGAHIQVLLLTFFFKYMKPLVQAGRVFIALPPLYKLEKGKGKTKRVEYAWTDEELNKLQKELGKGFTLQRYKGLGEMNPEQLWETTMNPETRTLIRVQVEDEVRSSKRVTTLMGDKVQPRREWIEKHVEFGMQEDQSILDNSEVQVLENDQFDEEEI
S. aureus DNA gyrase, sequence (P20831 whole entry): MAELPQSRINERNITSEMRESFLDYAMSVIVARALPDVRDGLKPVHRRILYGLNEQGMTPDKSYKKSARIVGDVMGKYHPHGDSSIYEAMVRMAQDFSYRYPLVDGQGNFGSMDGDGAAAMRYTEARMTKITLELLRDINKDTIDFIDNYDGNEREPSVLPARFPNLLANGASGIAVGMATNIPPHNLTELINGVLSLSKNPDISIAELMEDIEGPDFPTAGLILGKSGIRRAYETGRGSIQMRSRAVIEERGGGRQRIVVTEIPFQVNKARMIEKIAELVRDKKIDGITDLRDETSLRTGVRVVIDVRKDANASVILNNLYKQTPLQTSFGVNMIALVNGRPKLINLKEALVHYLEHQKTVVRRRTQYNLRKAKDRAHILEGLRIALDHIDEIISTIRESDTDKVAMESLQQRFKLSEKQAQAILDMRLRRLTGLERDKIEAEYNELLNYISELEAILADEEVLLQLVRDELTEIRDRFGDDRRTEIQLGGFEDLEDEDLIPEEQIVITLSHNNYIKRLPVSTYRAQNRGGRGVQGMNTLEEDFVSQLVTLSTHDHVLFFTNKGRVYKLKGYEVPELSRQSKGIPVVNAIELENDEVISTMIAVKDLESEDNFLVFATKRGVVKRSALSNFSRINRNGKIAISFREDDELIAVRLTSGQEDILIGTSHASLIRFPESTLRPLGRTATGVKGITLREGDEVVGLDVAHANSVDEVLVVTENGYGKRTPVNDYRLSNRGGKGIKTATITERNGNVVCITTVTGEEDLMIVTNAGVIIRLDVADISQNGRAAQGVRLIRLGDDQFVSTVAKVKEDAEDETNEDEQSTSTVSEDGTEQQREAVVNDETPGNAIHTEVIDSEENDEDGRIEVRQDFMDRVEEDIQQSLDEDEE
S. aureus DNA gyrase, sequence (P0A0K8 whole entry): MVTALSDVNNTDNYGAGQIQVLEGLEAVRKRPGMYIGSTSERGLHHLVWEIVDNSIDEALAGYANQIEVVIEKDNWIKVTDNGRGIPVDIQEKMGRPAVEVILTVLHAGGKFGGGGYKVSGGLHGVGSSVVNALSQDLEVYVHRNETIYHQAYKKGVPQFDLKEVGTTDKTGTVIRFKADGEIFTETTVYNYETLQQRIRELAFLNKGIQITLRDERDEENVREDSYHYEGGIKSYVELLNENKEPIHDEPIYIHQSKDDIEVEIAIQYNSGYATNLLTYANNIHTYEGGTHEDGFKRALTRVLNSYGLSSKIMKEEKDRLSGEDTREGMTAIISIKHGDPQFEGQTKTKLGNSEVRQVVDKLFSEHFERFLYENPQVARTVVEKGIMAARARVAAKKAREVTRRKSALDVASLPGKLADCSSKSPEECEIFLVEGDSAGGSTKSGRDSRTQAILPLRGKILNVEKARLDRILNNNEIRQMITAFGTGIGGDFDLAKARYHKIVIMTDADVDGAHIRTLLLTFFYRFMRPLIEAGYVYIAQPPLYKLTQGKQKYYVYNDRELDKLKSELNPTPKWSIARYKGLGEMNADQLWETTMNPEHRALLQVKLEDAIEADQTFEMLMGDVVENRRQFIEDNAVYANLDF

Row | Structure (SMILES) | MIC [1] | IC50 ([3]; Homo sapiens, SW480, 72 h) | SI SW480 [3] | IC50 [4] | SI SW620 [4] | IC50 ([5]; Homo sapiens, PC-3, 72 h) | SI PC3 [5] | MIC [7] | MIC [8] | MIC [9] | MIC [10] | MIC [11] | MIC [13] | IC50 [14] | MIC [16] | MIC [17] | MIC [18] | MIC [19] | MIC [20] | MIC [22] | other results
1 | COc1c(N2CC3CCCN(C(=O)/C=C(\C)CCC=C(C)C)C3C2)c(F)cc2c(=O)c(C(=O)O)cn(C3CC3)c12 (stereo not shown) [Compound 3m, 1-Cyclopropyl-7-{1-(2E)-(3,7-dimethyl-octa-2,6-dienoyl)-octahydro-pyrrolo[3,4-b]pyridin-6-yl}-6-fluoro-8-methoxy-4-oxo-1,4-dihydro-quinoline-3-carboxylic acid] | 16 µg/mL (≈ 29 µM) | 26.7 ± 1.4 µM | 3.0 | 38.2 ± 4.1 µM | 2.1 | 23.5 ± 4.7 µM | 3.5 | 8 to 32 µg/mL (≈ 14.5 to 58 µM) | 8 µg/mL (≈ 14.5 µM) | 8 µg/mL (≈ 14.5 µM) | > 64 µg/mL | 8 µg/mL (≈ 14.5 µM) | 8 µg/mL (≈ 14.5 µM) | 81.2 ± 2.6 µM | 16 µg/mL (≈ 29 µM) | 8 µg/mL (≈ 14.5 µM) | 8 µg/mL (≈ 14.5 µM) | 8 µg/mL (≈ 14.5 µM) | 8 µg/mL (≈ 14.5 µM) | 8 µg/mL (≈ 14.5 µM) | MIC ([2]; ATCC25922, 18 h): 128 µg/mL (≈ 232 µM); IC50 [6]: > 116 µM; MIC [12]: 128 µg/mL (≈ 232 µM); IC50 [15]: > 116 µM; MIC [21]: ≥ 128 µg/mL; MIC [23]: 16 µg/mL (≈ 29 µM); MIC [24]: 16 µg/mL (≈ 29 µM); MIC [25]: 128 µg/mL (≈ 232 µM)
2 | C=CCCCCC(=O)N1CCCC2CN(c3c(F)cc4c(=O)c(C(=O)O)cn(C5CC5)c4c3OC)CC21 (stereo not shown) [Compound 10m, 1-Cyclopropyl-6-fluoro-7-(1-hept-6-enoyl-octahydro-pyrrolo[3,4-b]pyridin-6-yl)-8-methoxy-4-oxo-1,4-dihydro-quinoline-3-carboxylic acid] | 16 µg/mL (≈ 31.3 µM) | 5.8 ± 0.8 µM | 15.1 | 6.2 ± 1.1 µM | 14.1 | < 5 µM | 19.0 | 2 to 4 µg/mL (≈ 3.91 to 7.82 µM) | 2 µg/mL (≈ 3.91 µM) | 2 µg/mL (≈ 3.91 µM) | > 512 µg/mL | 2 µg/mL (≈ 3.91 µM) | 2 µg/mL (≈ 3.91 µM) | 87.6 ± 4.5 µM | 2 µg/mL (≈ 3.91 µM) | 2 µg/mL (≈ 3.91 µM) | 16 µg/mL (≈ 31.3 µM) | 4 µg/mL (≈ 7.82 µM) | 2 µg/mL (≈ 3.91 µM) | 2 µg/mL (≈ 3.91 µM) | MIC ([2]; ATCC25922, 18 h of treatment): 32 µg/mL (≈ 62.5 µM); IC50 [5]: 4.6 ± 1.1 µM; MIC ([12]; 2 weeks of treatment): 32 µg/mL (≈ 62.5 µM); MIC [26]: 2 to 8 µg/mL (≈ 3.91 to 15.6 µM); MIC [23]: 4 µg/mL (≈ 7.82 µM); MIC [24]: 4 µg/mL (≈ 7.82 µM); MIC ([25]; 2 weeks of treatment): 32 µg/mL (≈ 62.5 µM)
3 | CCCCC/C=C\C/C=C\CCCCCCCC(=O)N1CCCC2CN(c3c(F)cc4c(=O)c(C(=O)O)cn(C5CC5)c4c3OC)CC21 (stereo not shown) [Compound 11m, 1-Cyclopropyl-6-fluoro-8-methoxy-7-{1-(9Z,12Z)-octadeca-9,12-dienoyl-octahydropyrrolo-[3,4-b]pyridin-6-yl)-4-oxo-1,4-dihydro-quinoline-3-carboxylic acid] | 512 µg/mL (≈ 771 µM) | < 5 µM | 19.0 | 7.3 ± 0.9 µM | 12.5 | < 5 µM | 25.4 | > 32 µg/mL | > 512 µg/mL | 512 µg/mL (≈ 771 µM) | > 512 µg/mL | > 512 µg/mL | > 512 µg/mL | 91.4 ± 5.3 µM | 64 µg/mL (≈ 96.4 µM) | 256 µg/mL (≈ 386 µM) | 512 µg/mL (≈ 771 µM) | 128 µg/mL (≈ 193 µM) | > 512 µg/mL | > 512 µg/mL | MIC ([2]; ATCC25922, 18 h of treatment): > 512 µg/mL; IC50 [3]: 4.8 ± 1.3 µM; IC50 [5]: 3.6 ± 1.1 µM; MIC ([12]; 2 weeks of treatment): 128 µg/mL (≈ 193 µM); MIC ([21]; summary over strains): ≥ 128 µg/mL; MIC [23]: 512 µg/mL (≈ 771 µM); MIC [24]: > 512 µg/mL; MIC ([25]; 2 weeks of treatment): 512 µg/mL (≈ 771 µM)
4 | CCCCC/C=C\C/C=C\C/C=C\CCCCC(=O)N1CCCC2CN(c3c(F)cc4c(=O)c(C(=O)O)cn(C5CC5)c4c3OC)CC21 (stereo not shown) [Compound 12m, 1-Cyclopropyl-6-fluoro-8-methoxy-7-{1-(6Z,9Z,12Z)-octadeca-6,9,12-trienoyl-octahydro-pyrrolo[3,4-b]pyridin-6-yl}-4-oxo-1,4-dihydro-quinoline-3-carboxylic acid] | 256 µg/mL (≈ 387 µM) | 16.8 ± 2.3 µM | 5.3 | 18.3 ± 3.2 µM | 4.8 | 14.7 ± 2.3 µM | 6.0 | > 32 µg/mL | 64 µg/mL (≈ 96.7 µM) | 32 µg/mL (≈ 48.3 µM) | > 512 µg/mL | 64 µg/mL (≈ 96.7 µM) | 32 µg/mL (≈ 48.3 µM) | 88.7 ± 3.3 µM | 256 µg/mL (≈ 387 µM) | 32 µg/mL (≈ 48.3 µM) | 512 µg/mL (≈ 774 µM) | 512 µg/mL (≈ 774 µM) | 64 µg/mL (≈ 96.7 µM) | 64 µg/mL (≈ 96.7 µM) | MIC ([2]; ATCC25922, 18 h of treatment): 128 µg/mL (≈ 193 µM); MIC ([12]; 2 weeks of treatment): 64 µg/mL (≈ 96.7 µM); MIC ([21]; summary over strains): 64 µg/mL (≈ 96.7 µM); MIC [23]: 32 µg/mL (≈ 48.3 µM); MIC [24]: 64 µg/mL (≈ 96.7 µM); MIC ([25]; 2 weeks of treatment): 64 µg/mL (≈ 96.7 µM)
